Among the data in ChEMBL document CHEMBL1159371, “Trisphaerolide A, a novel polyketide from the Dominican sponge Erylus trisphaerus” (J Nat Prod, 2003) are IC50 and Activity values, retold here.

What is called IC50 is the point on the concentration scale where inhibition reaches its midpoint. High values mean a need for much substance, low ones inhibition by little substance.

Molecules are shown by their SMILES. In brackets after ≈: the same amount, converted by molar mass. Activity calls are given as the source filed them. The rule behind the calls is not given here.

In experiment [1] the test system is MCF7. Briefly: Cytotoxicity against human MCF7 cells. In kind it is functional, cell-based.
In experiment [2] the test system is MCF7. Briefly: Cell cycle arrest in human MCF7 cells by G2 checkpoint inhibition assay. In kind it is functional, cell-based.

In turn, `C[C@]1(O)CC(=O)O[C@](C)(CCCCCCCCC/C=C/Cc2ccccc2)C1` [TRISPHAEROLIDE A] came in with an IC50 in experiment [1] of 30 µg/mL (≈ 77.6 µM). Besides, the outcome in experiment [2] was inactive.
